# Source: paper PMC10854695, “Using Flavonoid Substitution Status to Predict Anticancer Effects in Human Melanoma Cancers: An In Vitro Study” (Cancers, 2024)
# What was measured:
# A375 melanoma cells [1] = test: Neutral red uptake (NRU) assay, A375; settings: read-out: IC50, cytotoxic activity, NRU assay
# [2] = Neutral red uptake (NRU) assay, normal cells; settings: human, human skin fibroblasts (CCD25Sk)
# Description: (§1) The NRU (neutral red uptake) was conducted as previously described by Szoka and co-workers, with some modifications [22]. Briefly, melanoma cells and fibroblasts were seeded in microplates at the density of 1 × 10^4 cells per well and allowed to adhere for 24 h. […] After treatment, the culture medium was replaced with a neutral red solution (40 µg/mL). An additional 2 h of incubation was performed. The neutral red solution was then removed and the neutral red accumulated in the cells was dissolved in 50% EtOH with 1% of the glacial acetic acid. The absorbance was estimated at 540 nm and IC50 values were calculated using GraphPad Prism software (GraphPad Software, San Diego, CA, USA).
# in vitro = settings: human
# C32 melanoma cells [3] = test: MTT cell viability assay, C32; settings: Homo sapiens, read-out: IC50, cytotoxic activity, MTT test;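 note: MTT added for 2 h, cells lysed in DMSO, absorbance read at 570 nm, compound vehicle kept at or below 0.1% DMSO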
# Description: The MTT colorimetric assay was performed as a preliminary evaluation of the cytotoxicity of the selected flavonoids according to the method described and validated by Strawa et al. [21]. Briefly, melanoma cells and fibroblasts were seeded in 96-well microplates at a density of 1 × 10^4 cells per well. Fibroblasts were used as a control cell line in order to assess the selectivity of the compounds. […] Subsequently, the cells were washed with PBS, incubated with MTT solution for 2 h, and lysed with dimethyl sulfoxide (DMSO) supplemented with 1% (v/v) Sorensen’s glycine buffer. The absorbance was measured using a microplate reader (EPOCH 2, BioTek, Winooski, VT, USA) at a wavelength of 570 nm. The compounds were used at a final DMSO concentration of no more than 0.1% (v/v) in each well. The results were generated from at least three independent experiments. […] The IC50 values were calculated with GraphPad Prism 9 software (GraphPad Software, San Diego, CA, USA).
# A375 melanoma cells [4] = test: MTT cell viability assay, A375; settings: Homo sapiens;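 note: Read-out is formazan absorbance at 570 nm after 2 h with MTT, with compounds in at most 0.1% v/v DMSO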
# C32 melanoma cells [5] = test: Neutral red uptake (NRU) assay, C32
# [6] = system: caspases, PARP, phospho-RSK in C32 cells; test: Western immunoblot of apoptosis mediators and RSK, C32; type: cell-based, human; settings: C32, 48 h, Western blot; for cleaved PARP and caspase-9: test concentration or dose not given here
# [7] = system: human skin fibroblasts (CCD25Sk); test: Neutral red uptake (NRU) assay, normal cells; settings: read-out: IC50, cytotoxic activity, NRU assay; Normal cells (fibroblasts), 48 h
# Description: as §1
# [8] = system: human skin fibroblasts (CCD25Sk); test: [3H]-thymidine incorporation (DNA biosynthesis), normal cells; type: cell-based; settings: read-out: IC50, effect on DNA biosynthesis ([3H]-thymidine incorporation)
# Description: (§2) The inhibition of DNA biosynthesis was evaluated using [^3H]-thymidine incorporation into the DNA of melanoma cells (C32, A375) and fibroblasts treated with the studied compounds [21]. The cells were briefly seeded in 24-well plates (1 × 10^5 cells per well) and allowed to adhere for 24 h. […] After incubation for 24, 48, and 72 h, the cells were rinsed three times with PBS. Then, cells were lysed in 1 mL of 0.1 M NaOH containing 1% SDS. The cell lysate was moved into scintillation vials containing scintillation liquid, and the radioactivity of the samples was measured using a liquid scintillation analyzer (Perkin-Elmer, Waltham, MA, USA).
# [9] = system: caspases, PARP, phospho-RSK in A375 cells; test: Western immunoblot of apoptosis mediators and RSK, A375; type: cell-based, human; settings: A375, 48 h, Western blot
# Description: Floating cells were harvested by centrifugation of the conditioned media (300× g, 5 min). Cell pellet and adherent cells were lysed in a cell lysis buffer supplemented with inhibitors of proteases and phosphatases. The cell lysate was sonicated (2 × 10 s) on ice with an ultrasonic homogenizer (UP200S, Hielscher Ultrasonics GmbH, Teltow, Germany) and centrifuged for 10 min at 10,000× g. The supernatant was collected and stored in a freezer at −70 °C. Protein concentrations in the cell supernatants were determined using a Lowry assay. Obtained proteins were dissolved on SDS-PAGE gels (7.5%, 10%, or 12%) using the Mini-Protean Tetra system. The proteins were transferred to nitrocellulose membranes using the Mini Trans-Blot Cell wet blotting system. The 5% skim milk was used to block membranes. Then, membranes were probed for 24 h at 4 °C with the following antibodies: anti-phospho-RSK, anti-RSK, anti-PARP, anti-cleaved PARP, anti-caspase-8, anti-caspase-9, anti-caspase-7, anti-caspase-3, and anti-actin. Membranes were incubated with an ECL-HRP (enhanced chemiluminescence-horseradish peroxidase) substrate, and the signal was spotted using the BioSpectrum Imaging System and VisionWorks LS software 7.0 (Ultra-Violet Products, Ltd., San Gabriel, CA, USA). The intensity of the bands was quantified by densitometric analysis using UVIBand software, version 15.08d (Uvitec Ltd., Cambridge, UK).
# A375 melanoma cells [10] = test: [3H]-thymidine incorporation (DNA biosynthesis), A375; type: cell-based, human; settings: read-out: IC50, effect on DNA biosynthesis ([3H]-thymidine incorporation)
# Description: as §2
# C32 melanoma cells [11] = test: [3H]-thymidine incorporation (DNA biosynthesis), C32; type: cell-based, human; settings: read-out: IC50, effect on DNA biosynthesis ([3H]-thymidine incorporation)
# [12] = A-375, 24 h, read-out: IC50, cytotoxic activity, MTT test, A375, 24 h
# [13] = A-375, 48 h, read-out: IC50, cytotoxic activity, MTT test, A375, 48 h
# [14] = A-375, 72 h, read-out: IC50, cytotoxic activity, MTT test, A375, 72 h
# [15] = Homo sapiens, C32, 24 h, read-out: IC50, cytotoxic activity, NRU assay, C32, 24 h
# [16] = Homo sapiens, C32, 48 h, read-out: IC50, cytotoxic activity, NRU assay, C32, 48 h
# [17] = Homo sapiens, C32, 72 h, read-out: IC50, cytotoxic activity, NRU assay, C32, 72 h
Structure (SMILES),"IC50 (A375 melanoma cells [1]; Homo sapiens, A-375, 24 h) [µM]","IC50 (A375 melanoma cells [1]; Homo sapiens, A-375, 48 h) [µM]","IC50 (A375 melanoma cells [1]; Homo sapiens, A-375, 72 h) [µM]",IC50 at 24 h [2] [µM],IC50 at 48 h [2] [µM],IC50 at 72 h [2] [µM],IC50 at 24 h (in vitro) [µM],IC50 at 48 h (in vitro) [µM],IC50 at 72 h (in vitro) [µM],"IC50 (C32 melanoma cells [3]; C32, 24 h) [µM]","IC50 (C32 melanoma cells [3]; C32, 48 h) [µM]","IC50 (C32 melanoma cells [3]; C32, 72 h) [µM]",IC50 (A375 melanoma cells [4]; [12]) [µM],IC50 (A375 melanoma cells [4]; [13]) [µM],IC50 (A375 melanoma cells [4]; [14]) [µM],IC50 (C32 melanoma cells [5]; [15]) [µM],IC50 (C32 melanoma cells [5]; [16]) [µM],IC50 (C32 melanoma cells [5]; [17]) [µM],further results
"O=C(O)C1OC(Oc2c(-c3ccc(O)cc3)oc3cc(O)cc(O)c3c2=O)C(O)C(O)C1O (centres unmarked) [Compound 21, kaempferol 3-O-glucuronide]",> 200,> 200,> 200,> 200,> 200,> 200,> 200,> 200,> 200,> 200,> 200,> 200,> 200,> 200,> 200,> 200,> 200,> 200,–
"COc1ccc(-c2oc3c(CC=C(C)C)c(O[C@@H]4O[C@H](CO)[C@@H](O)[C@H](O)[C@H]4O)cc(O)c3c(=O)c2O[C@@H]2O[C@@H](C)[C@H](O)[C@@H](O)[C@H]2O)cc1 [Compound 23, icariin]",> 200,> 200,> 200,> 200,> 200,> 200,> 200,> 200,> 200,> 200,> 200,> 200,> 200,> 200,> 200,> 200,> 200,> 200,–
"O=c1c(O)c(-c2cc(O)c(O)c(O)c2)oc2cc(O)cc(O)c12 [Compound 30, myricetin]",> 200,> 200,> 200,> 200,> 200,> 200,> 200,> 200,> 200,> 200,> 200,> 200,> 200,> 200,75.3 ± 4.8,> 200,> 200,> 200,–
"COc1ccc([C@@H]2CC(=O)c3c(O)cc(O)cc3O2)cc1O [Compound 33, hesperetin]",100 to 200,100 to 200,100 to 200,> 200,> 200,100 to 200,> 200,> 200,> 200,> 200,100 to 200,76.5 ± 6.3,100 to 200,100 to 200,74.5 ± 6.4,69 ± 5.1,58.3 ± 5.6,53.7 ± 4,–
"N.N.[Cl][Pt][Cl] [cPt, cisplatin, reference compound]",–,–,–,–,–,–,–,–,–,–,–,–,–,–,–,–,–,–,"IC50 (A375 melanoma cells [1]; A375, 72 h): 9.9 ± 1.1 µM; cleaved PARP and caspase-9 [6]: generated cleaved PARP and caspase-9; phosphorylation of RSK [6]: inhibited; IC50 [7]: 47.5 ± 4.9 µM; IC50 ([8]; 24 h): 7.1 ± 0.9 µM; IC50 ([8]; 48 h): 6.1 ± 0.5 µM; IC50 ([8]; 72 h): 6.1 ± 0.8 µM; cleavage of initiator caspases, caspase-9 and caspase-8 [9]: cleavage of both initiator caspases; levels of the caspases-3 and -7 zymogens [9]: decreased levels; phosphorylation of the RSK protein [9]: impaired; IC50 (A375 melanoma cells [10]; A375, 24 h): 3.8 ± 0.2 µM; IC50 (A375 melanoma cells [10]; A375, 48 h): 3.9 ± 0.5 µM; IC50 (A375 melanoma cells [10]; A375, 72 h): 3.4 ± 0.3 µM; IC50 (C32 melanoma cells [5]; read-out: IC50, cytotoxic activity, NRU assay, C32, 72 h): 13.8 ± 1.5 µM; IC50 (C32 melanoma cells [11]; C32, 24 h): 6.8 ± 0.4 µM; IC50 (C32 melanoma cells [11]; C32, 48 h): 5.7 ± 0.3 µM; IC50 (C32 melanoma cells [11]; C32, 72 h): 4.4 ± 0.4 µM"
